From patent US6187572A, “Method of inactivation of viral and bacterial blood contaminants” (Baxter International Inc., priority 1993, dated 2001)
Where a name gives a salt, the structure may show the parent alone. Read-outs that look alike come from different tables or passages of the source.

Key:
[1] = system: .phi.6 phage; test: Comparison of viral inactivation efficiencies of brominated and non-brominated sensitizers in platelets (UVA); format: cell-based; conditions: 8B versus 8C, 0.1 mg/ml, UVA 3.3 mW/cm^2
Method: To test the viral inactivation efficiency of brominated sensitizers, platelet preparations (2 ml, PRP) were spiked with .phi.6 phage and brominated psoralen (8B) and non-brominated psoralen(8C) were added to obtain final sensitizer concentration of 0.1 mg/ml. The samples were exposed to UVA light in a home made reactor consisting of 4 UVA lamps for the indicated time periods. The petri dishes containing samples were mixed on an orbital shaker during UVA exposure. The UVA light intensity at the sample position was measured at 3.3 mW/cm^2. The residual viral titre after each time point was measured by plaque method. The viral reduction values are illustrated in FIG. 26.

[2] = system: .phi.6 phage; test: Viral inactivation in single unit platelet concentrates (UVA); format: cell-based; conditions: light or radiation study, 10 min
Method: (§1) Single unit platelet concentrates were obtained 24 hours after collection from certified blood banks. The platelets were subjected to soft spin to remove residual RBC and about 6 logs of .phi.6 phage and sensitizer 8B were added in PBS solution to obtain 0.03 mg/ml final sensitizer concentration. The samples were transferred to Stericonpolyolefin bag (which transmits 60% of UVA light) and irradiated from top (3.6 mW/cm^2)and bottom (3.4 mW/cm^2) in a home made reactor for 10 min. The bags were continuously mixed on extended glass platform attached to orbital shaker. The viral inactivation values and in vitro properties of platelet concentrates were monitored for 2 days after the treatment.
(§2) Single units of platelet concentrates in Cryocyte ™ bag containing 0.03
(§3) mg/mL #8B sensitizer (Appendix I) were irradiated from top (3.6
(§4) mW/cm^2) and bottom (3.4 mW/cm^2) using UVA radiation in a home
(§5) made reactor for 10 min (4.2 J/cm^2). After the treatment platelet
(§6) concentrates were transferred into original platelet containers and stored
(§7) in a platelet incubator for indicated period of time.
(§8) Platelet viability assays were carried out immediately after treatment and
following 24 & 48 hours storage in a platelet incubator. The viral
(§9) reduction in treated samples was determined by the plaque assay. The
(§10) values are mean ±S.D (n = 3)

[3] = system: single unit platelet concentrates; test: Platelet in vitro properties in single unit platelet concentrates after UVA treatment; format: cell-based; design: ADP Agg. / Collagen / HSR: unit not given here; conditions: for ADP Agg. / Cell count / Collagen / HSR / Morphology / pH: Treated, 0.03 mg/mL, UVA 10 min
Method: as §1, §2, §3, §4, §5, §6, §7, §8, §9, §10

[4] = system: .phi.6 phage; test: Viral inactivation in red blood cells (UVA, full units); format: cell-based; conditions: Erythrocyte, light or radiation study
Method: (§11) Units of packed red cells were transferred to Stericon red cell freezing bags and the hematocrits were adjusted to 60% with PBS. The samples were spiked with 5×10^6 PFU/ml .phi.6 phage and 0.3 mg/mL sensitizer 8B. The contents of the bag were exposed to UVA light from top (3.6 mW/cm^2) and bottom (3.4 mW/cm^2) for 6 hours (151.2 J/cm^2). The samples were mixed continuously during UVA exposure on an orbital shaker. The final viral titre in the sample was determined by the plaque method. In vitro biochemical and biophysical properties of treated red cells were monitored for 7 days following the treatment.
(§12) Viral inactivation treatment was carried out in packed red cells (full
(§13) units, 60% Hct.) containing model virus (.phi.6 phage) and 8B sensitizer
(§14) (0.3 mg/mL) in a Sericon red cells freezing bag (altered). The bags were
(§15) irradiated from top (3.6 mW/cm^2) and bottom (3.4 mW/cm^2) in a
(§16) home made reactor for 6 hours (151.2 J/cm^2). The sample was mixed
(§17) continuously during UVA exposure on a orbital shaker.

[5] = system: red cells; test: Red cell in vitro properties after viral inactivation treatment (UVA); format: cell-based; design: MCV / MCH / MCHC: unit not given here; conditions: for % Hemichrome / % Met Hb. / % Oxy Hb. / MCH / MCHC / MCV / DI Max % control: Treated; for % Hemichrome / % Met Hb. / % Oxy Hb. / MCH / MCHC / MCV: UVA 6 hours; for DI Max % control: ektacytometry
Method: as §11
DI Max, Deformability index by ektacytometry
as §12, §13, §14, §15, §16, §17
Data was collected from 3 separate experiments and the values are mean

[6] = system: λ; test: Inactivation of viruses in human plasma and bovine serum with UV activation; format: cell-based, λ phage; conditions: light or radiation study, 0.5 h, Fetal bovine serum, 0.03 mg/ml, UVA 30 min (8.4 J/cm^2), read-out: Viral Reduction (log)
Method: Viral inactivation in FBS was carried out in 100 ml serum samples in 225 cm^2 tissue culture flask in the presence of sensitizer 8B (0.03 mg/ml). The sample was exposed to UVA light from top (3.6 mW/cm^2) and bottom (3.4 mW/cm^2) while continuously mixing on an orbital shaker for 30 min. (8.4 J/cm^2). Human plasma was irradiated in a Pyrex glass photolysis cell in the presence of sensitizer 8 (0.1 mg/ml) for 5 min. Inactivation of various bacteriophages were carried out using brominated psoralens in combination with UVA light. The results in Table 5 clearly indicate that 5-7 logs of viral reduction was obtained with various phage (enveloped and non-enveloped) in human plasma fractions and fetal bovine serum products.

[7] = system: Salmonella typhimurium TA100; test: Ames mutagenicity, plate incorporation assay; format: cell-based
Method: (§18) The standard Ames mutagenicity test using salmonella mutants was performed on brominated sensitizer 8B at 0.6 mg/ml.

[8] = system: Salmonella typhimurium TA1535; test: Ames mutagenicity, plate incorporation assay; format: cell-based
Method: as §18

[9] = system: Salmonella typhimurium TA1537; test: Ames mutagenicity, plate incorporation assay; format: cell-based
Method: as §18

[10] = system: Salmonella typhimurium TA1538; test: Ames mutagenicity, plate incorporation assay; format: cell-based
Method: as §18

[11] = system: Salmonella typhimurium TA98; test: Ames mutagenicity, plate incorporation assay; format: cell-based
Method: as §18

[12] = system: salmonella mutants; test: Ames mutagenicity, overall; format: cell-based, Salmonella typhimurium; conditions: 0.6 mg/ml; words
Method: as §18

[13] = system: platelets; format: cell-based
Method: The viral inactivation values and in vitro properties of platelets subjected to viral inactivation treatment using various derivatives of psoralen are summarized in Table 1.
2 mL PRP samples (plastic disposable petri dishes) containing 0.1 mg/mL
sensitizer were irradiated with UVA for 6 min. (1.19 J/cm^2). The
intensity of UVA radiation at sample position was measured at 3.3
mW/cm^2. The data was obtained from three separate experiments using
different platelet concentrates. Values are mean ± SD.

[14] = system: cell damage; test: Cell damage by derivatives with free hydrogen atoms on the ammonium group; format: cell-based; conditions: words

## CC[N+](CC)(CC)CCCOc1c2occc2c(Br)c2ccc(=O)oc12 [Sensitizer #8B, 5-Bromo-8 (γ-Triethylaminopropyloxy) Psoralen Hydrochloride]
[1]
  improvement in the level of viral inactivation (brominated versus non-brominated): ≤ 400 fold
[2]; Treated, 0 Hour, 0.03 mg/mL, UVA 10 min (4.2 J/cm^2), n = 4, read-out: V.I
  log reduction at 30 µg/mL: 5.3 ± 0.2
[2]; read-out: viral reduction
  log reduction at 30 µg/mL: > 5.3
[3]; Example 15 text, words
  platelet in vitro properties: excellent retention of platelet in vitro properties
[3]; 0 Hour
  ADP Agg.: 43 ± 12
  Cell count: 474 ± 20
  Collagen: 72 ± 3
  HSR: 65 ± 8
  Morphology: 233 ± 17
  pH: 7.2 ± 0.1
[3]; 24 Hours
  ADP Agg.: 34 ± 19
  Cell count: 499 ± 50
  Collagen: 65 ± 3
  HSR: 65 ± 6
  Morphology: 230 ± 19
  pH: 7.1 ± 0.2
[3]; 43 Hours
  Collagen: 60 ± 4
  pH: 6.8 ± 0.1
[3]; 48 Hours
  HSR: 70 ± 6
[4]; 6 h, read-out: viral reduction
  log reduction at 300 µg/mL: > 6.6
[4]; Treated, Day 1, 0.3 mg/mL, UVA 6 hours (151.2 J/cm^2), read-out: Viral Reduction (log)
  log reduction at 300 µg/mL: 6.6 ± 0.1
[5]; Example 16 text, words
  in vitro biochemical and biophysical properties of red cells: without any significant alterations
[5]; Day 1, 0.3 mg/mL
  % Hemichrome: 1.9 ± 1.5%
  % Met Hb.: 2.9 ± 1.5%
  % Oxy Hb.: 95.2 ± 0.1%
  MCH: 30.9 ± 0.1
  MCHC: 34.9 ± 0.4
  MCV: 88.8 ± 2.5
  DI Max % control: 97.4 ± 3.6 % control
[5]; Day 2, 0.3 mg/mL
  % Hemichrome: 0.6 ± 0.9%
  % Met Hb.: 1.7 ± 1.7%
  % Oxy Hb.: 97.7 ± 1.7%
  MCH: 30.3 ± 0.4
  MCHC: 33.8 ± 0.9
  MCV: 89.8 ± 1.7
  DI Max % control: 99.6 ± 3.8 % control
[5]; Day 7, 0.3 mg/mL
  % Hemichrome: 0.2 ± 0.2%
  % Met Hb.: 1.4 ± 1.2%
  % Oxy Hb.: 98.5 ± 1.0%
  MCH: 30.1 ± 0.8
  MCHC: 33.6 ± 1.6
  MCV: 89.8 ± 1.7
  DI Max % control: 99.0 ± 5.9 % control
[6]
  log reduction at 30 µg/mL: 6.6
[7]; TA100, with S-9, average of duplicate plates
  Number of Revertan Colonies: 245
[7]; TA100, without S-9, average of duplicate plates
  Number of Revertan Colonies: 164
[8]; TA1535, with S-9, average of duplicate plates
  Number of Revertan Colonies: 197
[8]; TA1535, without S-9, average of duplicate plates
  Number of Revertan Colonies: 173
[9]; TA1537, with S-9, average of duplicate plates
  Number of Revertan Colonies: 26
[9]; TA1537, without S-9, average of duplicate plates
  Number of Revertan Colonies: 36
[10]; TA1538, with S-9, average of duplicate plates
  Number of Revertan Colonies: 25
[10]; TA1538, without S-9, average of duplicate plates
  Number of Revertan Colonies: 22
[11]; TA98, with S-9, average of duplicate plates
  Number of Revertan Colonies: 83
[11]; TA98, without S-9, average of duplicate plates
  Number of Revertan Colonies: 55
[12]
  mutagenicity: non-mutagenic

## Cc1oc2c(C)c3oc(=O)cc(C)c3cc2c1CN [AMT, 4'-aminomethyl-4,5',8-trimethylpsoralen]
[13]
  hypotonic shock response (HSR) and ADP aggregation response relative to the control: substantial reduction
[14]
  cell damage: unacceptable levels of cell damage
